Reference: PubChem BioAssay AID2060499 (Molecular Pharmacology Branch, DTP, NCI, 2025)

System: 777334-354-R2-J4-PDC tumor spheroids with HUVEC/MSC, viability
Assay: Anticancer human tumor 777334-354-R2-J4-PDC patient-derived pancreatic adenocarcinoma cell line growth inhibition [GQUAD]
Conditions: for IC50: curve of first compound; for viability, T/C: stronger effect = lower value
Procedure, shortened: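 Viability of tumor cells grown as complex spheroids with endothelial and stromal cells, exposed to drug combinations. Top concentration at or near clinical Cmax (else 10 microM), diluted in half-log increments.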

[1] = second compound 0.0316 µM, first compound 0.0316 µM
[2] = second compound 0.0316 µM, first compound 0.316 µM
[3] = second compound 0.1 µM, first compound 0.0316 µM
[4] = second compound 0.1 µM, first compound 0.316 µM
[5] = second compound 0.316 µM, first compound 0.0316 µM
[6] = second compound 0.316 µM, first compound 0.316 µM
[7] = second compound 1 µM, first compound 0.0316 µM
[8] = second compound 1 µM, first compound 0.316 µM
[9] = second compound 3.16 µM, first compound 0.0316 µM
[10] = second compound 3.16 µM, first compound 0.316 µM
[11] = second compound 10 µM, first compound 0.0316 µM
[12] = second compound 10 µM, first compound 0.316 µM
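Note: spheroids exposed to compounds for 7 days before readout.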

Structure (SMILES): Cn1ncnc1[C@H]1c2n[nH]c(=O)c3cc(F)cc(c23)N[C@@H]1c1ccc(F)cc1 + Cc1[nH]c2ccc(F)cc2c1-c1nc2c3cccnc3c3ncccc3c2[nH]1
- IC50 (second compound 0.0316 µM): > 316 nM
- IC50 (second compound 0.1 µM): > 316 nM
- IC50 (second compound 0.316 µM): > 316 nM
- IC50 (second compound 1 µM): > 316 nM
- IC50 (second compound 3.16 µM): < 0.999 nM
- IC50 (second compound 10 µM): < 0.999 nM
- viability, T/C (second compound 0.0316 µM, first compound 0.000999 µM): 105%
- viability, T/C (second compound 0.0316 µM, first compound 0.00316 µM): 87.4%
- viability, T/C (second compound 0.0316 µM, first compound 0.00999 µM): 92%
- viability, T/C [1]: 95.9%
- viability, T/C (second compound 0.0316 µM, first compound 0.0999 µM): 81.6%
- viability, T/C [2]: 90.3%
- viability, T/C (second compound 0.1 µM, first compound 0.000999 µM): 110%
- viability, T/C (second compound 0.1 µM, first compound 0.00316 µM): 102%
- viability, T/C (second compound 0.1 µM, first compound 0.00999 µM): 99.4%
- viability, T/C [3]: 83.9%
- viability, T/C (second compound 0.1 µM, first compound 0.0999 µM): 94.5%
- viability, T/C [4]: 88.2%
- viability, T/C (second compound 0.316 µM, first compound 0.000999 µM): 94.7%
- viability, T/C (second compound 0.316 µM, first compound 0.00316 µM): 97.9%
- viability, T/C (second compound 0.316 µM, first compound 0.00999 µM): 95.1%
- viability, T/C [5]: 85.5%
- viability, T/C (second compound 0.316 µM, first compound 0.0999 µM): 84%
- viability, T/C [6]: 74.7%
- viability, T/C (second compound 1 µM, first compound 0.000999 µM): 75.4%
- viability, T/C (second compound 1 µM, first compound 0.00316 µM): 91.9%
- viability, T/C (second compound 1 µM, first compound 0.00999 µM): 91.2%
- viability, T/C [7]: 81.9%
- viability, T/C (second compound 1 µM, first compound 0.0999 µM): 82.1%
- viability, T/C [8]: 65.5%
- viability, T/C (second compound 3.16 µM, first compound 0.000999 µM): 33.3%
- viability, T/C (second compound 3.16 µM, first compound 0.00316 µM): 33.7%
- viability, T/C (second compound 3.16 µM, first compound 0.00999 µM): 44.6%
- viability, T/C [9]: 22.8%
- viability, T/C (second compound 3.16 µM, first compound 0.0999 µM): 28.6%
- viability, T/C [10]: 43.8%
- viability, T/C (second compound 10 µM, first compound 0.000999 µM): 35.3%
- viability, T/C (second compound 10 µM, first compound 0.00316 µM): 37.6%
- viability, T/C (second compound 10 µM, first compound 0.00999 µM): 41.8%
- viability, T/C [11]: 28.7%
- viability, T/C (second compound 10 µM, first compound 0.0999 µM): 37.1%
- viability, T/C [12]: 31.5%

Structure (SMILES): O=C(c1cc(Cc2n[nH]c(=O)c3ccccc23)ccc1F)N1CCN(C(=O)C2CC2)CC1 + Cc1[nH]c2ccc(F)cc2c1-c1nc2c3cccnc3c3ncccc3c2[nH]1
- IC50 (second compound 0.0316 µM): > 10000 nM
- IC50 (second compound 0.1 µM): > 10000 nM
- IC50 (second compound 0.316 µM): > 10000 nM
- IC50 (second compound 1 µM): > 10000 nM
- IC50 (second compound 3.16 µM): < 31.6 nM
- IC50 (second compound 10 µM): < 31.6 nM
- viability, T/C [1]: 95.4%
- viability, T/C (second compound 0.0316 µM, first compound 0.1 µM): 95.8%
- viability, T/C [2]: 102%
- viability, T/C (second compound 0.0316 µM, first compound 1 µM): 98.7%
- viability, T/C (second compound 0.0316 µM, first compound 3.16 µM): 93.6%
- viability, T/C (second compound 0.0316 µM, first compound 10 µM): 83.1%
- viability, T/C [3]: 98.6%
- viability, T/C (second compound 0.1 µM, first compound 0.1 µM): 98.9%
- viability, T/C [4]: 99.5%
- viability, T/C (second compound 0.1 µM, first compound 1 µM): 92.5%
- viability, T/C (second compound 0.1 µM, first compound 3.16 µM): 103%
- viability, T/C (second compound 0.1 µM, first compound 10 µM): 78.7%
- viability, T/C [5]: 99.2%
- viability, T/C (second compound 0.316 µM, first compound 0.1 µM): 98.7%
- viability, T/C [6]: 95.1%
- viability, T/C (second compound 0.316 µM, first compound 1 µM): 103%
- viability, T/C (second compound 0.316 µM, first compound 3.16 µM): 106%
- viability, T/C (second compound 0.316 µM, first compound 10 µM): 76%
- viability, T/C [7]: 75.5%
- viability, T/C (second compound 1 µM, first compound 0.1 µM): 89.7%
- viability, T/C [8]: 91.6%
- viability, T/C (second compound 1 µM, first compound 1 µM): 82.9%
- viability, T/C (second compound 1 µM, first compound 3.16 µM): 89.2%
- viability, T/C (second compound 1 µM, first compound 10 µM): 82.5%
- viability, T/C [9]: 37.8%
- viability, T/C (second compound 3.16 µM, first compound 0.1 µM): 39.2%
- viability, T/C [10]: 36.4%
- viability, T/C (second compound 3.16 µM, first compound 1 µM): 38.2%
- viability, T/C (second compound 3.16 µM, first compound 3.16 µM): 43%
- viability, T/C (second compound 3.16 µM, first compound 10 µM): 32.8%
- viability, T/C [11]: 24.9%
- viability, T/C (second compound 10 µM, first compound 0.1 µM): 35.9%
- viability, T/C [12]: 39%
- viability, T/C (second compound 10 µM, first compound 1 µM): 33.7%
- viability, T/C (second compound 10 µM, first compound 3.16 µM): 36.5%
- viability, T/C (second compound 10 µM, first compound 10 µM): 33%
